Experimental data: the supplement of paper PMC11208160
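Further: IS621 bridge recombinase in Escherichia coli cells against a fixed T5 target plasmid.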

Assay: recombinant UMI read abundance after kanamycin selection (control-corrected) (log10(CPM+1)); higher = more efficient recombination; extreme values may be limits of the assay; sequences stand for … in AGTGCAGAGAAAATCGGCCAGTTTTCTCTGCCTGCAGTCCGCATGCCGTGGGACCCCTTGGGTTCTAACCTGTTGCCTAGATTTATGCAGCGGACTGCCTTTCTCCCAAAGTGATAAACCGG…AGGTTGGTTTCACT; site = the 11-nt donor
How it was run: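 In Escherichia coli, a pool of donor and donor-binding-loop pairs, each with a 12-nt UMI, was tested for the IS621 bridge recombinase. Plating was on IPTG (0.07 mM) plus kanamycin, or without selection, in two replicates. Recombinant UMIs were amplified by PCR across the donor–target junction and sequenced, and counts were reported as log10(CPM+1) after averaging and control-derived scaling.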
For “GGAGTGGCATGGACCGGTTTTCCCGGTAATCCGTATTTGGT (site GGAATGGCTAC)”, the “recombinant UMI read abundance (log10)” value was 0.749. For “GGAGTGGCATGGACCGGTTTTCCCGGTAATCCGTATTTGGT (site GGACTGGCTAC)”, the “recombinant UMI read abundance (log10)” value was 0.0487. For “GGAGTGGCATGGACCGGTTTTCCCGGTAATCCGTATTTGGT (site GGAGAGGCTAC)”, the “recombinant UMI read abundance (log10)” value was 0.524. With “GGAGTGGCATGGACCGGTTTTCCCGGTAATCCGTATTTGGT (site GGAGCGGCTAC)” the “recombinant UMI read abundance (log10)” value was 0.00445. With “GGAGTGGCATGGACCGGTTTTCCCGGTAATCCGTATTTGGT (site GGAGGGGCTAC)” the “recombinant UMI read abundance (log10)” value was 0.461. For “GGAGTGGCATGGACCGGTTTTCCCGGTAATCCGTATTTGGT (site GGAGTAGCTAC)”, the “recombinant UMI read abundance (log10)” value was 0.606. For “GGAGTGGCATGGACCGGTTTTCCCGGTAATCCGTATTTGGT (site GGAGTCGCTAC)”, the “recombinant UMI read abundance (log10)” value was 0.014. With “GGAGTGGCATGGACCGGTTTTCCCGGTAATCCGTATTTGGT (site GGAGTGACTAC)” the “recombinant UMI read abundance (log10)” value was 0.976. In the case of “GGAGTGGCATGGACCGGTTTTCCCGGTAATCCGTATTTGGT (site GGAGTGCCTAC)”, the “recombinant UMI read abundance (log10)” value is reported as 0.377. With “GGAGTGGCATGGACCGGTTTTCCCGGTAATCCGTATTTGGT (site GGAGTGGCTAA)” the “recombinant UMI read abundance (log10)” value was 0.0703. In the case of “GGAGTGGCATGGACCGGTTTTCCCGGTAATCCGTATTTGGT (site GGAGTGGCTAC)”, the “recombinant UMI read abundance (log10)” value is reported as 0.575. In the case of “GGAGTGGCATGGACCGGTTTTCCCGGTAATCCGTATTTGGT (site GGAGTGGCTAG)”, the “recombinant UMI read abundance (log10)” value is reported as 1.26. In the case of “GGAGTGGCATGGACCGGTTTTCCCGGTAATCCGTATTTGGT (site GGAGTGGCTAT)”, the “recombinant UMI read abundance (log10)” value is reported as 0.592. For “GGAGTGGCATGGACCGGTTTTCCCGGTAATCCGTATTTGGT (site GGAGTGGCTCC)”, the “recombinant UMI read abundance (log10)” value was 0.0114. In the case of “GGAGTGGCATGGACCGGTTTTCCCGGTAATCCGTATTTGGT (site GGAGTGGCTGC)”, the “recombinant UMI read abundance (log10)” value is reported as 0.537. With “GGAGTGGCATGGACCGGTTTTCCCGGTAATCCGTATTTGGT (site GGAGTGGCTTC)” the “recombinant UMI read abundance (log10)” value was 0.0104. For “GGAGTGGCATGGACCGGTTTTCCCGGTAATCCGTATTTGGT (site GGAGTGTCTAC)”, the “recombinant UMI read abundance (log10)” value was 1.1. For “GGAGTGGCATGGACCGGTTTTCCCGGTAATCCGTATTTGGT (site GGAGTTGCTAC)”, the “recombinant UMI read abundance (log10)” value was 0. In the case of “GGAGTGGCATGGACCGGTTTTCCCGGTAATCCGTATTTGGT (site GGATTGGCTAC)”, the “recombinant UMI read abundance (log10)” value is reported as 0.458. In the case of “GGAGTGGCATGGACCGGTTTTCCCGGTAATCCGTATTTGGT (site GGCGTGGCTAC)”, the “recombinant UMI read abundance (log10)” value is reported as 0.0051. In the case of “GGAGTGGCATGGACCGGTTTTCCCGGTAATCCGTATTTGGT (site GGGGTGGCTAC)”, the “recombinant UMI read abundance (log10)” value is reported as 0.0193. In the case of “GGAGTGGCATGGACCGGTTTTCCCGGTAATCCGTATTTGGT (site GGTGTGGCTAC)”, the “recombinant UMI read abundance (log10)” value is reported as 0.564. For “GGAGTGGCATGGACCGGTTTTCCCGGTAATCCGTATTTGGT (site GTAGTGGCTAC)”, the “recombinant UMI read abundance (log10)” value was 0.294. In the case of “GGAGTGGCATGGACCGGTTTTCCCGGTAATCCGTATTTGGT (site TGAGTGGCTAC)”, the “recombinant UMI read abundance (log10)” value is reported as 0.32. For “GGATCATCATGGACCGGTTTTCCCGGTAATCCGTATTTGAT (site CGATCATCTAG)”, the “recombinant UMI read abundance (log10)” value was 0. In the case of “GGATCATCATGGACCGGTTTTCCCGGTAATCCGTATTTGAT (site GGATCATCTAT)”, the “recombinant UMI read abundance (log10)” value is reported as 0.00412. For “GGATCATCATGGACCGGTTTTCCCGGTAATCCGTATTTGCT (site AGATCATCTAG)”, the “recombinant UMI read abundance (log10)” value was 0. In the case of “GGATCATCATGGACCGGTTTTCCCGGTAATCCGTATTTGCT (site CGATCATCTAG)”, the “recombinant UMI read abundance (log10)” value is reported as 0.511. For “GGATCATCATGGACCGGTTTTCCCGGTAATCCGTATTTGCT (site GGATCATCTAG)”, the “recombinant UMI read abundance (log10)” value was 1.59. For “GGATCATCATGGACCGGTTTTCCCGGTAATCCGTATTTGCT (site TGATCATCTAG)”, the “recombinant UMI read abundance (log10)” value was 0.91. With “GGATCCCCATGGACCGGTTTTCCCGGTAATCCGTATTTGCT (site GGATCCCCTAG)” the “recombinant UMI read abundance (log10)” value was 0.0066. With “GGATCGACATGGACCGGTTTTCCCGGTAATCCGTATTTGTT (site AGATCGACTAA)” the “recombinant UMI read abundance (log10)” value was 0.0171. For “GGATCGACATGGACCGGTTTTCCCGGTAATCCGTATTTGTT (site CGATCGACTAA)”, the “recombinant UMI read abundance (log10)” value was 0.00751. In the case of “GGATCGACATGGACCGGTTTTCCCGGTAATCCGTATTTGTT (site GGATCGACTAA)”, the “recombinant UMI read abundance (log10)” value is reported as 0.7. For “GGATCGACATGGACCGGTTTTCCCGGTAATCCGTATTTGTT (site TGATCGACTAA)”, the “recombinant UMI read abundance (log10)” value was 0.00972. With “GGATCGGCATGGACCGGTTTTCCCGGTAATCCGTATTTGAC (site GGATCGGCTGT)” the “recombinant UMI read abundance (log10)” value was 1.87. For “GGATGATCATGGACCGGTTTTCCCGGTAATCCGTATTTGCT (site CGATCATCTAG)”, the “recombinant UMI read abundance (log10)” value was 0. For “GGATGATCATGGACCGGTTTTCCCGGTAATCCGTATTTGCT (site GGATGATCTAG)”, the “recombinant UMI read abundance (log10)” value was 2.36. In the case of “GGATTATCATGGACCGGTTTTCCCGGTAATCCGTATTTGAT (site GGATTATCTAT)”, the “recombinant UMI read abundance (log10)” value is reported as 1.82. For “GGATTGACATGGACCGGTTTTCCCGGTAATCCGTATTTGCC (site GGATAGACTGG)”, the “recombinant UMI read abundance (log10)” value was 1.42. With “GGATTGACATGGACCGGTTTTCCCGGTAATCCGTATTTGCC (site GGATCGACTGG)” the “recombinant UMI read abundance (log10)” value was 1.06. With “GGATTGACATGGACCGGTTTTCCCGGTAATCCGTATTTGCC (site GGATGGACTGG)” the “recombinant UMI read abundance (log10)” value was 0. For “GGATTGACATGGACCGGTTTTCCCGGTAATCCGTATTTGCC (site GGATTGACTGG)”, the “recombinant UMI read abundance (log10)” value was 1.98. With “GGCAAACCATGGACCGGTTTTCCCGGTAATCCGTATTTGAA (site GGCAAACCTTT)” the “recombinant UMI read abundance (log10)” value was 0. With “GGCAAACCATGGACCGGTTTTCCCGGTAATCCGTATTTGAA (site GGCAACCCTTT)” the “recombinant UMI read abundance (log10)” value was 0. For “GGCAAACCATGGACCGGTTTTCCCGGTAATCCGTATTTGAA (site GGCAAGCCTTT)”, the “recombinant UMI read abundance (log10)” value was 0.00636. With “GGCAAACCATGGACCGGTTTTCCCGGTAATCCGTATTTGAA (site GGCAATCCTTT)” the “recombinant UMI read abundance (log10)” value was 0. For “GGCAACCCATGGACCGGTTTTCCCGGTAATCCGTATTTGGA (site GGCAACCCTTC)”, the “recombinant UMI read abundance (log10)” value was 0.0138. With “GGCAATCCATGGACCGGTTTTCCCGGTAATCCGTATTTGAC (site GGCAATCCTAT)” the “recombinant UMI read abundance (log10)” value was 0.00921. For “GGCAATCCATGGACCGGTTTTCCCGGTAATCCGTATTTGAC (site GGCAATCCTCT)”, the “recombinant UMI read abundance (log10)” value was 0.00258. In the case of “GGCAATCCATGGACCGGTTTTCCCGGTAATCCGTATTTGAC (site GGCAATCCTGT)”, the “recombinant UMI read abundance (log10)” value is reported as 0.665. With “GGCAATCCATGGACCGGTTTTCCCGGTAATCCGTATTTGAC (site GGCAATCCTTT)” the “recombinant UMI read abundance (log10)” value was 0. With “GGCAATCCATGGACCGGTTTTCCCGGTAATCCGTATTTGTA (site GGCAATCCTTA)” the “recombinant UMI read abundance (log10)” value was 0.264. In the case of “GGCAATCCATGGACCGGTTTTCCCGGTAATCCGTATTTGTA (site GGCAATCCTTC)”, the “recombinant UMI read abundance (log10)” value is reported as 0.00948. With “GGCAATCCATGGACCGGTTTTCCCGGTAATCCGTATTTGTA (site GGCAATCCTTG)” the “recombinant UMI read abundance (log10)” value was 0. With “GGCAATCCATGGACCGGTTTTCCCGGTAATCCGTATTTGTA (site GGCAATCCTTT)” the “recombinant UMI read abundance (log10)” value was 0. With “GGCACAGCATGGACCGGTTTTCCCGGTAATCCGTATTTGAA (site GGCACAGCTTT)” the “recombinant UMI read abundance (log10)” value was 1.87.
